The values below are quoted from earlier work in US8637672B2 (Deciphera Pharmaceuticals, LLC, priority 2010, dated 2014).

The data set addresses VEGFR-2 (KDR kinase) (Homo sapiens, UniProt P35968, DEL940-989/E990V). The following applies: values published in the '188/'556 applications; cited from earlier work.

VEGFR-2 (KDR kinase), sequence (P35968 with tags, fused parts or gaps DEL940-989/E990V): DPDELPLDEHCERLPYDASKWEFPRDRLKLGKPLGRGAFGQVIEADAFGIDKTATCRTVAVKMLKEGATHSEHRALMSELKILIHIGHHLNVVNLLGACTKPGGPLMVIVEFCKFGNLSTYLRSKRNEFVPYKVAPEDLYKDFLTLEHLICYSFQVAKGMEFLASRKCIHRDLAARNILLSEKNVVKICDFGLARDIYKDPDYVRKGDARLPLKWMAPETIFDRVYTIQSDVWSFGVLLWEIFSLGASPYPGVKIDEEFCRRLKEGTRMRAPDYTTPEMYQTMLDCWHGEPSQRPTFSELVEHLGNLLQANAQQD

Consider `CN1CCN(C2CCN(C(=O)Nc3cc(Oc4ccc(NC(=O)C5(C(=O)Nc6ccc(F)cc6)CC5)c(F)c4)ccn3)CC2)CC1` [Compound F], for which the 50% inhibitory concentration (IC50) – broadly, the point on the concentration scale where inhibition reaches its midpoint – is 240 nM.
